Measurements reported in patent US6765105B2, “Compound and pharmaceutical composition of antiplasmid effect and the preparation thereof” (priority 2000, dated 2004).
Entries after “also recorded” stand apart in the source; their conditions may differ. Read-outs that look alike come from different tables or passages of the source. Marks after values point to notes of the source that are not given here.

Assays:
E. coli = assay: Bacteriostatic effect (MIC), serial dilution in liquid culture medium; type: cell-based
[1] = system: E. coli K12 F′lac (PBR322) plasmid; type: cell-based
Experimental: (§1) We made a dilution of 10^−4 from a preliminary culture of 16 hours of E. coli strains containing R-factor, and dosed 0.05 ml therefrom into a broth culture medium MTE of 5 ml. We completed the cultures with the examined compounds in different concentrations and kept them at the temperature 37° C. during 24 to 48 hours without aeration. We made different dilutions from the cultures and streaked 0.1 ml of them onto EP agar plates. Having incubated them during the night we made a replication from the plates containing the cultures onto plates containing the corresponding antibiotics.
The plates containing antibiotics were incubated at 37° C. during 24 hours then the settlements of bacteria on them were compared to those on the master plates and the requirement of nutrition of the bacteria was examined.

[2] = system: F′lac plasmid of E. coli K12; type: cell-based
Experimental: (§2) We made a dilution of 10^−4 from a culture of 16 hours of the bacteria strain K12 LE140 of E. coli and we inoculated 0.05 ml (1 to 5×10^3 cells) of it into 5 ml of broth culture medium MTE. The cultures with plasmid eliminating compounds added in different concentrations were incubated at 37° C. during 24 hours. We made dilutions from the contents of tubes, in which growth of bacteria were detected, then 0.1 ml of these dilutions were streaked onto EMB agar. The plates were incubated at 37° C. during 24 hours, then we counted the settlements of bacteria of types lac^+ and lac^−, which provides basis to calculate the percent of inhibition.

plasmid = assay: In vitro experiments for antiplasmid effect (plasmid eliminating ability); type: cell-based; details: for Plasmid eliminating ability: in concentration of 50 μg/ml; for Plasmid eliminating ability / Eliminating ability (in words): in vitro
Text: The elimination of R-plasmids and F′lac plasmids, as well as inhibition of transmission of R-plasmid transfer were studied.
These are the compounds under mark FC-1181, FC-1186 and Sila-439. The compound sila-429 (75%) was compared against three representatively antibiotic resistant strains of bacteria, as follows: the polyresistant Acinetobacter anitratus, the resistant to gentamycine staphylococcus aureus and the Methycilline resistant Staphylococcus aureus strains.
as §1, §2

[3] = system: RN 4220 S. aureus, plasmid pCRG 1600; type: cell-based; details: without substance 2.1
[4] = system: RN 4220 S. aureus, plasmid pIP 855; type: cell-based; details: without substance 1.8
[5] = system: RN 4220 S. aureus, plasmid pIP 856; type: cell-based; details: without substance 2.3
[6] = system: RN 4220 S. aureus, plasmid pBI 109 PGL; type: cell-based; details: without substance 68.7
[7] = system: E. coli K 12 F′lac1 donor to E coliχ1037 recipient
Experimental: (§3) We made tenfold dilutions of fresh donor culture of E. coli C600 R144 drd-3 and of fresh recipient culture resistant to i^r and in some cases to nalid-x acid of E. coli K12 W1 at optical density of 0.4 ([…]), then we mixed together 1.0 ml of donor culture and 1.0 ml of recipient culture and kept the samples at the temperature 37° C. 0 to 24 hours in presence of the applied compounds.
(§4) As control the mixture of donor and recipient cultures of the same proportion was incubated.
(§5) We performed experiments of two types to clarify the manner of action. The donor cells were previously treated during 5 minutes with the compound to be examined being in corresponding concentration, and the recipient cells were added thereafter in the experiments of one type The compounds to be examined were added 5 minutes after mixing together the donor and recipient cultures in the experiments of the other type. The target of our examinations was the inhibition of the conjugated transfer at the formed pairs. We made tenfold dilutions of the samples with physiological saline solution, the formed pairs of cells were divided by shaking during 1 minute then we made following dilutions where no more resistance transfer passed (see. Beverley and fellow-workers, 1981).
(§6) We streaked quantities of 0.1 ml form the dilutions onto MTE agar plates containing 50 μg/ml of kanamycine and onto plates containing 500 μg/ml of sodium azide to determine the number of recombinants. The number of donor bacteria was established only on the culture medium containing kanamycine, the number of recipient ones was established only on the culture medium containing sodium azide. The plates were kept during 48 hours at 37° C.

[8] = system: E. coli K12 F′lac2 donor to E. coliχ1037 recipient
Experimental: as §3, §4, §5, §6

[9] = system: E. coli K12 J5-3 (R16) donor to E. coliχ1037 recipient; details: donor E. coli K12 J5-3 (R16)
Experimental: as §3, §4, §5, §6

[10] = system: E. coli K12 J5-3 (R27) donor to E. coliχ1037 recipient; details: donor E. coli K12 J5-3 (R27)
Experimental: as §3, §4, §5, §6

[11] = system: E. coli K12 J5-3 (R386) donor to E. coliχ1037 recipient; details: donor E. coli K12 J5-3 (R386)
Experimental: as §3, §4, §5, §6

[12] = system: Acinetobactes anitratus (resistant to Chlorocid)
Experimental: (§7) The bacteriostatic effect was inspected on a liquid culture medium using method of serial dilution. We inoculated 0.05 ml of culture of the examined bacteria being in exponential phase (i.e. of optical density 0.4) in dilution by 10^−4 into broth culture medium MTE of 5 ml. The culture of E. coli of optical density 0.4 contained 4.1 to 5.2×10^8, the one of Staphylococcus aureus of similar density contained 2.2 to 8.2×10^7 settlement building units per ml. […] We examined thereafter the smallest concentration of each compound, which still inhibits the proliferation of the identical number of bacteria. The examinations for the antiplasmid effect could be begun after having been obtained the mentioned date, because these effects can be detected only at values lower than MIC.
(§8) The previously established MIC (minimal inhibiting concentration) values are as follows: […]

[13] = system: Escherichia coli (resistant to Chlorocid)
Experimental: as §7, §8

[14] = system: Staphylococcus aureus (resistant to gentamycine)
Experimental: as §7, §8

mice = system: mice
Experimental: We used the usual dose of inoculation i.e. 0,2 ml per 10 g weight. […] The exact definition of this value should be done in an institute dealing with toxicology and clinical pharmacology.

[15] = concentration of elimination 18 mg/ml
[16] = second line for FC-2006/C, concentration of elimination not given
[17] = concentration of elimination 62,5 mg/ml
[18] = concentration of elimination 312, mg/ml
[19] = concentration of elimination 25 mg/ml
[20] = concentration of elimination 33 mg/ml
[21] = dose of 500 mg/kg, intraperitoneal, 5 mice

Compound: 4(dimethyl-n-butyl-silil-methyloxy)-benzoic acid-(3-pyridyl)-methylester-methoiodide [FC-2006/C]
- MIC (E. coli): 25 mg/mL
- Frequency of elimination (%) ApTC [1, 15]: 0%
- Frequency of elimination (%) TC [1, 15]: 0%
- Frequency of elimination (%) ApTC [1, 16]: 0%
- Frequency of elimination (%) TC [1, 16]: 0%
- Frequency of elimination (%) Lac [2, 15]: 0%
- Frequency of elimination (%) Lac [2, 16]: 0%
- Plasmid eliminating ability (plasmid): outstanding plasmid eliminating ability
- Eliminating ability (in words) (plasmid): good eliminating ability
- Eliminating effect (plasmid; only to one E. coli plasmid): ~100%
- Frequency of elimination (%) ([3]; plasmid pCRG 1600, 9.5 μg/ml): 32.6%
- Frequency of elimination (%) ([4]; plasmid pIP 855, 9.5 μg/ml): 69.2%
- Frequency of elimination (%) ([5]; plasmid pIP 856, 9.5 μg/ml): 75.1%
- Frequency of elimination (%) ([6]; plasmid pBI 109 PGL, 9.5 μg/ml): 94.4%
- Frequency of transfer ([7]; donor E. coli K 12 F′lac1, in concentration of 24.7 μg/ml, without substance 0.6 × 10^−6): 2.2 × 10^−6
- Frequency of transfer ([8]; donor E. coli K12 F′lac2, in concentration of 24.7 μg/ml, without substance 0.6 × 10^−6): 3 × 10^−6
- Frequency of transfer ([9]; in concentration of 24.7 μg/ml, without substance 0.3 × 10^−1): 0.3 × 10^−3
- Frequency of transfer ([10]; in concentration of 24.7 μg/ml, without substance 0.2 × 10): 0.2 × 10^−1
- Frequency of transfer ([11]; in concentration of 24.7 μg/ml, without substance 0.5 × 10^−1): 0.9 × 10^−2

Compound: CC[n+]1c(-c2ccccc2)c2cc(N)ccc2c2ccc(N)cc21 [Ethidium bromide, reference compound]
- Frequency of elimination (%) ApTC [1, 17]: 24%
- Frequency of elimination (%) TC [1, 17]: 30%
- Frequency of elimination (%) ApTC [1, 18]: 0%
- Frequency of elimination (%) TC [1, 18]: 10%
- Frequency of elimination (%) Lac [2, 17]: 0%
- Frequency of elimination (%) Lac [2, 18]: 0%
- Frequency of elimination (%) ([3]; plasmid pCRG 1600, 62.5 μg/ml): 2.8%
- Frequency of elimination (%) ([4]; plasmid pIP 855, 1.95 μg/ml): 9.4%
- Frequency of elimination (%) ([5]; plasmid pIP 856, 1.95 μg/ml): 12.3%
- Frequency of elimination (%) ([6]; plasmid pBI 109 PGL, 3.9 μg/ml): 88.2%

Compound: CCCC[Si](C)(C)COc1ccc(C(=O)OCCC[N+](C)(C)C)cc1.[I-] [FC-2012, 4-(dimethyl-n-butyl-silil-methyloxy)-benzoic acid-3-dimethylamino-propyl-ester-methoiodide]
- MIC (E. coli): 39 mg/mL
- Frequency of elimination (%) ApTC [1, 19]: 2%
- Frequency of elimination (%) TC [1, 19]: 10%
- Frequency of elimination (%) ApTC [1, 20]: 27%
- Frequency of elimination (%) TC [1, 20]: 58%
- Frequency of elimination (%) Lac [2, 19]: 0%
- Frequency of elimination (%) Lac [2, 20]: 0%
- Eliminating ability (in words) (plasmid): good eliminating ability
- Frequency of elimination (%) ([3]; plasmid pCRG 1600, 7.8 μg/ml): 10.1%
- Frequency of elimination (%) ([4]; plasmid pIP 855, 7.8 μg/ml): 41.9%
- Frequency of elimination (%) ([5]; plasmid pIP 856, 7.8 μg/ml): 34.6%
- Frequency of elimination (%) ([6]; plasmid pBI 109 PGL, 7.,8 μg/ml): 88.0%
- Frequency of transfer ([7]; donor E. coli K 12 F′lac1, in concentration of 15 μg/ml, without substance 0.8 × 10^−6): 0**
- Frequency of transfer ([8]; donor E. coli K12 F′lac2, in concentration of 15 μg/ml, without substance 0.2 × 10^−5): 0**
- Frequency of transfer ([9]; in concentration of 30 μg/ml, without substance 1.2 × 10^−2): 1 × 10^−3***
- Frequency of transfer ([10]; in concentration of 30 μg/ml, without substance 2.5 × 10^−4): 2.3 × 10^−4***
- Frequency of transfer ([11]; in concentration of 30 μg/ml, without substance 0.4): 0.6 × 10^−1***

Compound: C[N+](C)(C)CCOC(=O)c1ccc(OCCC[Si](C)(C)C)cc1.[I-] [Sila-439, 4-(3-trimethyl-silil-propyloxy)-benzoic acid-2-dimethyl-amino-ethyl-ester-methoiodide]
- MIC (minimal inhibiting concentration) [12]: 0.08 mg/mL
- MIC (minimal inhibiting concentration) [13]: 0.07 mg/mL
- MIC (minimal inhibiting concentration) [14]: 180 μ/ml
- Concentration at which the antiplasmid effect manifests (plasmid): 40 µg/mL
- Plasmid eliminating ability (plasmid): outstanding plasmid eliminating ability
- Eliminating ability (in words) (plasmid): extraordinary good eliminating ability; also recorded: very good plasmid elimination effect
- Antiplasmid effect in in vitro experiments (plasmid; three compounds effective from 36 studied): effective
- Toxicity (i.p), mice alive per mice inoculated (mice; 50 mg/kg (0.01 ml/mouse) i.p., 2 hours): 5/5
- Toxicity (i.p), mice alive per mice inoculated (mice; 50 mg/kg (0.01 ml/mouse) i.p., 6 hours): 5/5
- Toxicity (i.p), mice alive per mice inoculated (mice; 50 mg/kg (0.01 ml/mouse) i.p., 9 hours): 5/5
- Toxicity (i.p), mice alive per mice inoculated (mice; 50 mg/kg (0.01 ml/mouse) i.p., 12 hours): 5/5
- Toxicity (i.p), mice alive per mice inoculated (mice; 50 mg/kg (0.01 ml/mouse) i.p., 24 hours): 5/5
- Toxicity (i.p), mice alive per mice inoculated (mice; 500 mg/kg (0.1 ml/mouse) i.p., 2 hours): 0/5
- Condition of the mice after inoculation (mice; dose of 50 mg/kg, intraperitoneal): lived and moved vividly exactly like those in the control group
- Mortality after inoculation (mice; [21]): all the five mice died
- Spasms after inoculation (mice; [21]): spasms occurred in the 5 inoculated mice in two minutes
